# Measurements reported in ChEMBL document CHEMBL4052714, “Synthesis and antibacterial activity of novel 4″-O-(1-aralkyl-1,2,3-triazol-4-methyl-carbamoyl) azithromycin analogs” (2017).
# Tests used:
# Format in all cases: functional
# Streptococcus pyogenes [1] = assay: Antibacterial activity against erythromycin-resistant Streptococcus pyogenes isolate R2
# Staphylococcus aureus [2] = assay: Antibacterial activity against erythromycin-susceptible Staphylococcus aureus ATCC 25923
# Streptococcus pyogenes [3] = assay: Antibacterial activity against erythromycin-susceptible Streptococcus pyogenes isolate S2
# Staphylococcus aureus [4] = assay: Antibacterial activity against methicillin-susceptible Staphylococcus aureus ATCC 29213
# Streptococcus pneumoniae [5] = assay: Antibacterial activity against erythromycin-resistant Streptococcus pneumoniae AB11 expressing ermB/mefA gene
# Escherichia coli = assay: Antibacterial activity against Escherichia coli ATCC 25922
# Streptococcus pneumoniae [6] = assay: Antibacterial activity against erythromycin-resistant Streptococcus pneumoniae B1 expressing ermB gene
# Pseudomonas aeruginosa = assay: Antibacterial activity against Pseudomonas aeruginosa ATCC 27853
# Streptococcus pneumoniae [7] = assay: Antibacterial activity against erythromycin-susceptible Streptococcus pneumoniae ATCC 49619
# Streptococcus pneumoniae [8] = assay: Antibacterial activity against erythromycin-resistant Streptococcus pneumoniae A22072 expressing mefA gene
# Streptococcus pneumoniae [9] = assay: Potency index, ratio of azithromycin MIC to compound MIC for erythromycin-resistant Streptococcus pneumoniae B1 expressing ermB gene
# Streptococcus pneumoniae [10] = assay: Potency index, ratio of azithromycin MIC to compound MIC for erythromycin-resistant Streptococcus pneumoniae A22072 expressing mefA gene
# Streptococcus pneumoniae [11] = assay: Potency index, ratio of azithromycin MIC to compound MIC for erythromycin-resistant Streptococcus pneumoniae AB11 expressing ermB/mefA gene
# Streptococcus pneumoniae [12] = assay: Potency index, ratio of clarithromycin MIC to compound MIC for erythromycin-resistant Streptococcus pneumoniae B1 expressing ermB gene
# Streptococcus pneumoniae [13] = assay: Potency index, ratio of clarithromycin MIC to compound MIC for erythromycin-resistant Streptococcus pneumoniae AB11 expressing ermB/mefA gene
# Streptococcus pneumoniae [14] = assay: Potency index, ratio of clarithromycin MIC to compound MIC for erythromycin-resistant Streptococcus pneumoniae A22072 expressing mefA gene
smiles,measurement,setting,value
CC[C@H]1OC(=O)[C@H](C)[C@@H](O[C@H]2C[C@@](C)(OC)[C@@H](OC(=O)NCc3cn(Cc4c(Cl)cccc4Cl)nn3)[C@H](C)O2)[C@H](C)[C@@H](O[C@@H]2O[C@H](C)C[C@H](N(C)C)[C@H]2O)[C@](C)(O)C[C@@H](C)CN(C)[C@H](C)[C@@H](O)[C@]1(C)O,MIC,Streptococcus pyogenes [1],32 µg/mL
same,MIC,Staphylococcus aureus [2],1 µg/mL
same,MIC,Streptococcus pyogenes [3],0.03 µg/mL
same,MIC,Staphylococcus aureus [4],16 µg/mL
same,MIC,Streptococcus pneumoniae [5],0.5 µg/mL
same,MIC,Escherichia coli,32 µg/mL
same,MIC,Streptococcus pneumoniae [6],0.5 µg/mL
same,MIC,Pseudomonas aeruginosa,32 µg/mL
same,MIC,Streptococcus pneumoniae [7],0.5 µg/mL
same,MIC,Streptococcus pneumoniae [8],0.5 µg/mL
CC[C@H]1OC(=O)[C@H](C)[C@@H](O[C@H]2C[C@@](C)(OC)[C@@H](OC(=O)NCc3cn(Cc4cccc(C)c4)nn3)[C@H](C)O2)[C@H](C)[C@@H](O[C@@H]2O[C@H](C)C[C@H](N(C)C)[C@H]2O)[C@](C)(O)C[C@@H](C)CN(C)[C@H](C)[C@@H](O)[C@]1(C)O,MIC,Streptococcus pyogenes [1],32 µg/mL
same,MIC,Staphylococcus aureus [2],1 µg/mL
same,MIC,Streptococcus pyogenes [3],0.03 µg/mL
same,MIC,Staphylococcus aureus [4],16 µg/mL
same,MIC,Streptococcus pneumoniae [5],1 µg/mL
same,MIC,Escherichia coli,32 µg/mL
same,MIC,Streptococcus pneumoniae [6],1 µg/mL
same,MIC,Pseudomonas aeruginosa,32 µg/mL
same,MIC,Streptococcus pneumoniae [7],0.5 µg/mL
same,MIC,Streptococcus pneumoniae [8],1 µg/mL
CC[C@H]1OC(=O)[C@H](C)[C@@H](O[C@H]2C[C@@](C)(OC)[C@@H](OC(=O)NCc3cn(Cc4cccc(C)c4)nn3)[C@H](C)O2)[C@H](C)[C@@H](O[C@@H]2O[C@H](C)C[C@H](N(C)C)[C@H]2O)[C@](C)(O)C[C@@H](C)CN(C)[C@H](C)[C@H]2OC(=O)O[C@@]21C,MIC,Streptococcus pyogenes [1],64 µg/mL
same,MIC,Staphylococcus aureus [2],2 µg/mL
same,MIC,Streptococcus pyogenes [3],0.25 µg/mL
same,MIC,Staphylococcus aureus [4],32 µg/mL
same,MIC,Streptococcus pneumoniae [5],2 µg/mL
same,MIC,Escherichia coli,128 µg/mL
same,MIC,Streptococcus pneumoniae [6],4 µg/mL
same,MIC,Pseudomonas aeruginosa,64 µg/mL
same,MIC,Streptococcus pneumoniae [7],1 µg/mL
same,MIC,Streptococcus pneumoniae [8],2 µg/mL
CC[C@H]1OC(=O)[C@H](C)[C@@H](O[C@H]2C[C@@](C)(OC)[C@@H](OC(=O)NCc3cn(Cc4c(Cl)cccc4Cl)nn3)[C@H](C)O2)[C@H](C)[C@@H](O[C@@H]2O[C@H](C)C[C@H](N(C)C)[C@H]2O)[C@](C)(O)C[C@@H](C)CN(C)[C@H](C)[C@H]2OC(=O)O[C@@]21C,MIC,Streptococcus pyogenes [1],16 µg/mL
same,MIC,Staphylococcus aureus [2],4 µg/mL
same,MIC,Streptococcus pyogenes [3],0.125 µg/mL
same,Ratio,Streptococcus pneumoniae [9],128
same,MIC,Staphylococcus aureus [4],32 µg/mL
same,MIC,Streptococcus pneumoniae [5],0.25 µg/mL
same,Ratio,Streptococcus pneumoniae [10],16
same,MIC,Escherichia coli,128 µg/mL
same,MIC,Streptococcus pneumoniae [6],1 µg/mL
same,Ratio,Streptococcus pneumoniae [11],1024
same,MIC,Pseudomonas aeruginosa,64 µg/mL
same,MIC,Streptococcus pneumoniae [7],1 µg/mL
same,MIC,Streptococcus pneumoniae [8],0.25 µg/mL
CC[C@H]1OC(=O)[C@H](C)[C@@H](O[C@H]2C[C@@](C)(OC)[C@@H](OC(=O)NCc3cn(Cc4ccc(C)cc4)nn3)[C@H](C)O2)[C@H](C)[C@@H](O[C@@H]2O[C@H](C)C[C@H](N(C)C)[C@H]2O)[C@](C)(O)C[C@@H](C)CN(C)[C@H](C)[C@H]2OC(=O)O[C@@]21C,MIC,Streptococcus pyogenes [1],64 µg/mL
same,MIC,Staphylococcus aureus [2],4 µg/mL
same,MIC,Streptococcus pyogenes [3],0.25 µg/mL
same,MIC,Staphylococcus aureus [4],64 µg/mL
same,MIC,Streptococcus pneumoniae [5],1 µg/mL
same,MIC,Escherichia coli,128 µg/mL
same,MIC,Streptococcus pneumoniae [6],2 µg/mL
same,MIC,Pseudomonas aeruginosa,64 µg/mL
same,MIC,Streptococcus pneumoniae [7],1 µg/mL
same,MIC,Streptococcus pneumoniae [8],1 µg/mL
CC[C@H]1OC(=O)[C@H](C)[C@@H](O[C@H]2C[C@@](C)(OC)[C@@H](OC(=O)NCc3cn(Cc4ccc([N+](=O)[O-])cc4)nn3)[C@H](C)O2)[C@H](C)[C@@H](O[C@@H]2O[C@H](C)C[C@H](N(C)C)[C@H]2O)[C@](C)(O)C[C@@H](C)CN(C)[C@H](C)[C@@H](O)[C@]1(C)O,MIC,Streptococcus pyogenes [1],64 µg/mL
same,MIC,Staphylococcus aureus [2],1 µg/mL
same,MIC,Streptococcus pyogenes [3],0.03 µg/mL
same,MIC,Staphylococcus aureus [4],16 µg/mL
same,MIC,Streptococcus pneumoniae [5],1 µg/mL
same,MIC,Escherichia coli,32 µg/mL
same,MIC,Streptococcus pneumoniae [6],1 µg/mL
same,MIC,Pseudomonas aeruginosa,32 µg/mL
same,MIC,Streptococcus pneumoniae [7],1 µg/mL
same,MIC,Streptococcus pneumoniae [8],2 µg/mL
CC[C@H]1OC(=O)[C@H](C)[C@@H](O[C@H]2C[C@@](C)(OC)[C@@H](OC(=O)NCc3cn(Cc4ccccc4C)nn3)[C@H](C)O2)[C@H](C)[C@@H](O[C@@H]2O[C@H](C)C[C@H](N(C)C)[C@H]2O)[C@](C)(O)C[C@@H](C)CN(C)[C@H](C)[C@@H](O)[C@]1(C)O,MIC,Streptococcus pyogenes [1],64 µg/mL
same,MIC,Staphylococcus aureus [2],1 µg/mL
same,MIC,Streptococcus pyogenes [3],0.03 µg/mL
same,MIC,Staphylococcus aureus [4],16 µg/mL
same,MIC,Streptococcus pneumoniae [5],0.5 µg/mL
same,MIC,Escherichia coli,16 µg/mL
same,MIC,Streptococcus pneumoniae [6],0.5 µg/mL
same,MIC,Pseudomonas aeruginosa,64 µg/mL
same,MIC,Streptococcus pneumoniae [7],0.25 µg/mL
same,MIC,Streptococcus pneumoniae [8],0.5 µg/mL
CC[C@H]1OC(=O)[C@H](C)[C@@H](O[C@H]2C[C@@](C)(OC)[C@@H](OC(=O)NCc3cn(Cc4ccccc4Cl)nn3)[C@H](C)O2)[C@H](C)[C@@H](O[C@@H]2O[C@H](C)C[C@H](N(C)C)[C@H]2O)[C@](C)(O)C[C@@H](C)CN(C)[C@H](C)[C@@H](OC(=O)NCc2ccc(OC)cc2)[C@]1(C)O,MIC,Streptococcus pyogenes [1],8 µg/mL
same,MIC,Staphylococcus aureus [2],0.03 µg/mL
same,MIC,Streptococcus pyogenes [3],< 0.002 µg/mL
same,Ratio,Streptococcus pneumoniae [9],1024 - 2133
same,MIC,Staphylococcus aureus [4],16 µg/mL
same,Ratio,Streptococcus pneumoniae [12],1024 - 2133
same,MIC,Streptococcus pneumoniae [5],0.125 µg/mL
same,Ratio,Streptococcus pneumoniae [13],1024 - 2048
same,Ratio,Streptococcus pneumoniae [14],32 - 133
same,Ratio,Streptococcus pneumoniae [10],32 - 133
same,MIC,Escherichia coli,32 µg/mL
same,MIC,Streptococcus pneumoniae [6],0.06 µg/mL
same,Ratio,Streptococcus pneumoniae [11],1024 - 2048
same,MIC,Pseudomonas aeruginosa,8 µg/mL
same,MIC,Streptococcus pneumoniae [7],0.125 µg/mL
same,MIC,Streptococcus pneumoniae [8],0.03 µg/mL
